{"source": "BindingDB's records for patent US9745328", "about": "(Janssen Pharmaceutica NV, 2017)", "target": "T1, Arachidonate 5-lipoxygenase-activating protein (Homo sapiens, UniProt P20292)", "T1 sequence (P20292 whole entry)": "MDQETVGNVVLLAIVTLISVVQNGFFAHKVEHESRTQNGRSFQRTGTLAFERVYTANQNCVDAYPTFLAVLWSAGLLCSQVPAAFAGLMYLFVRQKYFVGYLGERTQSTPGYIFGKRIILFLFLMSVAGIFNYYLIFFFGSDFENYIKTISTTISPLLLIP", "experiment": "Binding Assay", "method": "The FLAP binding assay is performed in HTRF format (homogeneous time resolved fluorescence). FLAP-containing membranes (1 μg/well final for human) are incubated in the presence of the HTRF ligand. […] The reaction is allowed to proceed for two hours after which the plate is read on an Envision plate reader in HTRF mode. Data are expressed as a HTRF ratio. For human FLAP binding assays, data are analyzed with 3DX Explorer software. […] For analysis, data from multiple runs are averaged and each compound may be tested in 2 to 20 runs. Each run comprises two plates and each plate includes duplicates. Data from each plate is averaged and data are imported into 3DX. The data from multiple runs are aggregated as the average of duplicates of the calculated ratios in order to calculate Ki and IC50 values.", "data": [{"compound": "Nc1cnc(-c2ccc(-c3ccccc3-c3ccc(N)nn3)cc2F)cn1", "note": "[US9745328, Compound 863]", "values": [{"measurement": "Ki", "value": 41.1, "unit": "nM"}]}]}
